The values that follow come from PMC6632053, “Incorporation of Putative Helix-Breaking Amino Acids in the Design of Novel Stapled Peptides: Exploring Biophysical and Cellular Permeability Properties” (Molecules, 2019).

Data set [1] deals with p53 responsive β-lactamase reporter in HCT116 cells. Briefly: p53 beta-lactamase reporter gene cellular functional assay. Type of data set: cell-based. To be noted: p53 reporter assay, HCT116, read-out: Cellular (µM), cellular activity (EC50). Put shortly:
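HCT116 cells stably carrying a p53-responsive β-lactamase reporter seeded 8000/well overnight, then switched to Opti-MEM with 0% or 10% FBS for compound treatment at 0.5% DMSO final. β-Lactamase activity measured with ToxBLAzer Dual Screen on a multiplate reader.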

Data set [2] in a line: Circular dichroism (CD) α-helicity. To be noted: for Helicity (%): CD of free peptide, 25 °C, 1 mM Hepes pH 7.4, 5% methanol. Type of data set: physicochemical. Put shortly:
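Peptide dried from methanol, reconstituted to 1 mM in 1 mM Hepes pH 7.4 with 5% methanol; concentration by A280. CD spectra 300–190 nm, 0.2 cm path, 25 °C, duplicates; converted to mean residue ellipticity and deconvoluted for secondary structure.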

Data set [3] in a line: Whole cell homogenate stability. Type of data set: in vitro ADME. The conditions noted are these: 1 μM peptide, 37 °C, up to 22 h. Here is the method: Peptides at a concentration of 1 μM were incubated at 37 °C with HCT116 whole cell homogenates prepared from 1 million lysed cells/mL. The reaction was stopped at 0, 1, 2, 4, and 22 h with an organic solvent followed by centrifugation. The resulting supernatant was injected into LC/MS for detection of the tested peptide. The remaining percentage of each compound was normalized to the 0 h amount and reported. As a positive control, we used the ONEG peptide with the sequence […] [28].

In another data set the target is T1, human Mdm2 1–125 (Homo sapiens, UniProt Q00987).
T1 construct: GST (N); His6 (internal); TEV cleavage site ENLYFQG (internal); made in house; host or cells: Escherichia coli BL21 (DE3) Rosetta T1R
The data set can be described thus: Mdm2 binding assay (competitive fluorescence anisotropy/polarization). For orientation: Fluorescence polarisation rises when a labelled molecule tumbles more slowly, as on binding a larger partner.

Setting [4] is: Table 1, competitive fluorescence polarization, read-out: Mdm2 (nM), Mdm2 binding (Kd).
[5] abbreviates: Table 2, competitive fluorescence polarization, read-out: Mdm2 (nM), Mdm2 binding (Kd).

In general, EC50 refers to the concentration that produces a half-maximal response. Broadly, the Kd is the constant that tells how readily two partners part at equilibrium.

Where two headings read alike, the source gives them in different places. Bridge positions count the residues as written; N and C are the ends. Square brackets hold non-standard residues; d marks the D form. Peptide text beside a SMILES is read from it. R8 = C=CCCCCCC[C@@](C)(N)C(=O)O; Cba = N[C@@H](CC1CCC1)C(=O)O; S5 = C=CCCC[C@](C)(N)C(=O)O

T1 sequence (Q00987 with tags, fused parts or gaps): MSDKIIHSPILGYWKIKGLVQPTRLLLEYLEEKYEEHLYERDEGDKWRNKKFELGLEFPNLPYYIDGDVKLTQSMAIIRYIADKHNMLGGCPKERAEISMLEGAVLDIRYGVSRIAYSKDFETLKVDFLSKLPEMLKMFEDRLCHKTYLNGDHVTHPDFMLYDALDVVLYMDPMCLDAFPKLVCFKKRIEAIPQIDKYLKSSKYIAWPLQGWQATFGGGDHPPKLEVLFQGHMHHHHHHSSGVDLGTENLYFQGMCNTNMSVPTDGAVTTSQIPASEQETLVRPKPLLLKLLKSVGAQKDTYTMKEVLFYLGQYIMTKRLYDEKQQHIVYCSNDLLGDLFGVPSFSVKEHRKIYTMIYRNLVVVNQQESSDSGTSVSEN

For the molecule `CC(=O)N[C@@H](CC(C)C)C(=O)N[C@H](C(=O)N[C@@H](Cc1ccccc1)C(=O)NC(C)(C)C(=O)N[C@H](CCC(=O)O)C(=O)N[C@@H](Cc1ccc(O)cc1)C(=O)N[C@@H](Cc1c[nH]c2ccccc12)C(=O)N[C@@H](CCC(N)=O)C(=O)N[C@@H](CC(C)C)C(=O)N[C@@H](CC1CCC1)C(=O)NC(C)(C)C(=O)N[C@@H](CO)C(=O)N[C@@H](C)C(=O)N[C@@H](C)C(N)=O)[C@@H](C)O` [Linear E5(D-Glu)], the EC50 in data set [1] (Table 1) was greater than 50 µM. Further, the “Helicity (%)” value in data set [2] (Table 1) was 21.4%. Besides, the “stability in whole cell homogenate” value in data set [3] was “decreased stability”. Further, the dissociation constant Kd on human Mdm2 1–125 (setting [4]) was determined as 135 nM.

For the molecule `CC(=O)N[C@@H](CCCCN=[N+]=[N-])C(=O)NCCC(=O)N[C@@H](CC(C)C)C(=O)N[C@H](C(=O)N[C@@H](Cc1ccccc1)C(=O)N[C@]1(C)CCCCCCC=CCCC[C@@](C)(C(=O)NCC(=O)N[C@@H](C)C(=O)N[C@@H](C)C(N)=O)NC(=O)[C@H](CC2CCC2)NC(=O)[C@H](CCC(N)=O)NC(=O)[C@H](C)NC(=O)[C@H](Cc2c[nH]c3ccccc23)NC(=O)[C@H](Cc2ccc(O)cc2)NC(=O)[C@H](CCC(=O)O)NC1=O)[C@@H](C)O` [Peptide S12G], the concentration for a half-maximal effect (EC50) in data set [1] (Table 2) worked out at 0.65 µM. Besides, in data set [2] (Table 2), the “Helicity (%)” value is recorded as 46.5%. The same molecule displayed a Kd on human Mdm2 1–125 of 18.9 nM.

Regarding `CC(=O)N[C@@H](CCCCN=[N+]=[N-])C(=O)NCCC(=O)N[C@@H](CC(C)C)C(=O)N[C@H](C(=O)N[C@@H](Cc1ccccc1)C(=O)N[C@]1(C)CCCCCCC=CCCC[C@@](C)(C(=O)N2CCC[C@H]2C(=O)N[C@@H](C)C(=O)N[C@@H](C)C(N)=O)NC(=O)[C@H](CC2CCC2)NC(=O)[C@H](CCC(N)=O)NC(=O)[C@H](C)NC(=O)[C@H](Cc2c[nH]c3ccccc23)NC(=O)[C@H](Cc2ccc(O)cc2)NC(=O)[C@H](CCC(=O)O)NC1=O)[C@@H](C)O` [Peptide S12P], the EC50 in data set [1] (Table 2) amounted to 3.7 µM. In addition, the “Helicity (%)” value in data set [2] (Table 2) is recorded as 30.8%. Also, on human Mdm2 1–125 (setting [5]), the dissociation constant Kd worked out at 45.7 nM.

Take `CC(=O)N[C@@H](CC(C)C)C(=O)N[C@@H](C)C(=O)N[C@@H](Cc1ccccc1)C(=O)N[C@]1(C)CCCCCCC=CCCC[C@@](C)(C(=O)N[C@@H](CO)C(=O)N[C@@H](C)C(=O)N[C@@H](C)C(N)=O)NC(=O)[C@H](CC2CCC2)NC(=O)[C@H](CC(C)C)NC(=O)[C@H](CCC(N)=O)NC(=O)[C@H](Cc2c[nH]c3ccccc23)NC(=O)[C@H](Cc2ccc(O)cc2)NC(=O)[C@H](CCC(=O)O)NC1=O` [Peptide T2A] (Ac-LAF[R8]EYWQL[Cba][S5]SAA-NH2; staple 4-11): the concentration giving a half-maximal response (EC50) in data set [1] (Table 1) worked out at 1 µM. Also, the “Helicity (%)” value in data set [2] (Table 1) is on record as 36.2%. In addition, the dissociation constant (Kd) at human Mdm2 1–125 (setting [4]) was found to be 21.3 nM.

`CC(=O)N[C@@H](CC(C)C)C(=O)N[C@H](C(=O)N[C@@H](Cc1ccccc1)C(=O)N[C@]1(C)CCCCCCC=CCCC[C@@](C)(C(=O)N[C@@H](CO)C(=O)N[C@@H](C)C(=O)N[C@@H](C)C(N)=O)NC(=O)[C@H](CC2CCC2)NC(=O)[C@H](CC(C)C)NC(=O)[C@H](CCC(N)=O)NC(=O)[C@H](Cc2c[nH]c3ccccc23)NC(=O)[C@H](C)NC(=O)[C@H](CCC(=O)O)NC1=O)[C@@H](C)O` [Peptide Y6A] (Ac-LTF[R8]EAWQL[Cba][S5]SAA-NH2; staple 4-11): in data set [1] (Table 1), the EC50 is 0.55 µM. The “Helicity (%)” value in data set [2] (Table 1) was 50.3%. The dissociation constant Kd on human Mdm2 1–125 (setting [4]) came to 38.9 nM.

`CC(=O)N[C@@H](CC(C)C)C(=O)N[C@H](C(=O)N[C@@H](Cc1ccccc1)C(=O)N[C@]1(C)CCCCCCC=CCCC[C@@](C)(C(=O)N[C@@H](CO)C(=O)N[C@@H](C)C(=O)N[C@@H](C)C(N)=O)NC(=O)[C@H](CC2CCC2)NC(=O)[C@H](CC(C)C)NC(=O)[C@@H](CCC(N)=O)NC(=O)[C@H](Cc2c[nH]c3ccccc23)NC(=O)[C@H](Cc2ccc(O)cc2)NC(=O)[C@H](CCC(=O)O)NC1=O)[C@@H](C)O` [Q8(D-Gln)]: in data set [1] (Table 1), the 50% effective concentration (EC50) was 2.1 µM. Further, in data set [2] (Table 1), the “Helicity (%)” value was 27.1%. Further, on human Mdm2 1–125 (setting [4]), the Kd came to 22 nM.

Consider `CC(=O)N[C@@H](CCCCN=[N+]=[N-])C(=O)NCCC(=O)N[C@@H](CC(C)C)C(=O)N[C@H](C(=O)N[C@@H](Cc1ccccc1)C(=O)N[C@]1(C)CCCCCCC=CCCC[C@@](C)(C(=O)N[C@@H](CO)C(=O)N[C@@H](C)C(=O)N[C@@H](C)C(N)=O)NC(=O)[C@H](CC2CCC2)NC(=O)[C@H](CCC(N)=O)N(C)C(=O)[C@H](C)NC(=O)[C@H](Cc2c[nH]c3ccccc23)NC(=O)[C@H](Cc2ccc(O)cc2)NC(=O)[C@H](CCC(=O)O)NC1=O)[C@@H](C)O` [Q9(N-methyl L-Gln)], for which, in data set [1] (Table 2), the EC50 was greater than 50 µM. Moreover, in data set [2], the “α-helicity by CD” value is recorded as less than 30%. For the same molecule, the “Helicity (%)” value in data set [2] (Table 2) stood at 20.2%. Besides, on human Mdm2 1–125 (setting [5]), the Kd was found to be 211 nM.

Consider `CC(=O)N[C@@H](CC(C)C)C(=O)N[C@H](C(=O)N[C@@H](Cc1ccccc1)C(=O)N[C@]1(C)CCCCCCC=CCCC[C@@](C)(C(=O)N[C@H](CO)C(=O)N[C@@H](C)C(=O)N[C@@H](C)C(N)=O)NC(=O)[C@H](CC2CCC2)NC(=O)[C@H](CC(C)C)NC(=O)[C@H](CCC(N)=O)NC(=O)[C@H](Cc2c[nH]c3ccccc23)NC(=O)[C@H](Cc2ccc(O)cc2)NC(=O)[C@H](CCC(=O)O)NC1=O)[C@@H](C)O` [S12(D-Ser)], for which the EC50 in data set [1] (Table 1) is 1.2 µM. Moreover, the “Helicity (%)” value in data set [2] (Table 1) was determined as 41.2%. Also, the Kd at human Mdm2 1–125 (setting [4]) was found to be 8.6 nM.

Take `CC(=O)N[C@@H](CC(C)C)C(=O)N[C@@H](C(=O)N[C@@H](Cc1ccccc1)C(=O)N[C@]1(C)CCCCCCC=CCCC[C@@](C)(C(=O)N[C@@H](CO)C(=O)N[C@@H](C)C(=O)N[C@@H](C)C(N)=O)NC(=O)[C@H](CC2CCC2)NC(=O)[C@H](CC(C)C)NC(=O)[C@H](CCC(N)=O)NC(=O)[C@H](Cc2c[nH]c3ccccc23)NC(=O)[C@H](Cc2ccc(O)cc2)NC(=O)[C@H](CCC(=O)O)NC1=O)[C@H](C)O` [T2(D-Thr)]: the 50% effective concentration (EC50) in data set [1] (Table 1) was determined as 3.4 µM. In addition, in data set [2] (Table 1), the “Helicity (%)” value is 40.7%. In addition, the Kd on human Mdm2 1–125 (setting [4]) turned out to be 136 nM.

Take `CC(=O)N[C@@H](CC(C)C)C(=O)N[C@H](C(=O)N[C@@H](Cc1ccccc1)C(=O)N[C@]1(C)CCCCCCC=CCCC[C@@](C)(C(=O)N[C@@H](CO)C(=O)N[C@@H](C)C(=O)N[C@@H](C)C(N)=O)NC(=O)[C@H](CC2CCC2)NC(=O)[C@H](CC(C)C)NC(=O)[C@H](CCC(N)=O)NC(=O)[C@@H](Cc2c[nH]c3ccccc23)NC(=O)[C@H](Cc2ccc(O)cc2)NC(=O)[C@H](CCC(=O)O)NC1=O)[C@@H](C)O` [W6(D-Trp) (MP-384)]: the EC50 in data set [1] (Table 1) worked out at 0.6 µM. Further, the “Helicity (%)” value in data set [2] (Table 1) is listed as 41.0%. Besides, the dissociation constant (Kd) on human Mdm2 1–125 (setting [4]) was 30 nM.

Turning to `CC(=O)N[C@@H](CC(C)C)C(=O)N[C@H](C(=O)N[C@@H](Cc1ccccc1)C(=O)N[C@]1(C)CCCCCCC=CCCC[C@@](C)(C(=O)N[C@@H](CO)C(=O)N[C@@H](C)C(=O)N[C@@H](C)C(N)=O)NC(=O)[C@H](CC2CCC2)NC(=O)[C@H](CC(C)C)NC(=O)[C@H](CCC(N)=O)NC(=O)[C@H](Cc2c[nH]c3ccccc23)NC(=O)[C@@H](Cc2ccc(O)cc2)NC(=O)[C@H](CCC(=O)O)NC1=O)[C@@H](C)O` [Y6 (D-Tyr)], the EC50 in data set [1] (Table 1) is 3.2 µM. Moreover, in data set [2] (Table 1), the “Helicity (%)” value was 43.2%. The Kd on human Mdm2 1–125 (setting [4]) was determined as 286 nM.
